How the values were obtained:
Type in all cases: cell-based, human
[1] = tested on: T2 cells loaded with the corresponding synthetic peptide and HLA-A2+ lung cancer cells lines [CRL-5865, CRL-5944 and NCI-H522]; test: Granzyme B ELISpot with peptide-specific CTL from healthy HLA-A2+ donors; conditions: CTL from PBMC of two healthy HLA-A2+ donors; FIG. 2
Protocol: (§1) PBMC were purified from HLA-A2^+ normal donor blood using lymphocyte separation media (Cappel ICN Biomedical, Aurora, Ohio). PBMC (5.3×10^6) were added to individual wells of a 24-well cluster plate (Costar, Corning, N.Y.) in 1.0 ml of serum-free AIM-V medium (Life Technologies) and allowed to adhere for 60 min at 37° C. Non-adherent cells were removed and saved as a source of effector T cells. Adherent PBMC (˜8.3×10^5/well) were then pulsed with […] synthetic peptides in serum-free AIM-V medium containing […] β2-microglobulin (Calbiochem-Novabiochem, San Diego, Calif.) and incubated for 2 h at 37° C. Unbound peptides were aspirated and the wells washed with media.
(§2) Monocyte-derived DC were generated as follows. PBMC (5.3×10^7) were allowed to adhere in T-75 flasks (Corning) in 10 ml of serum-free AIM-V medium for 60 min at 37° C. Non-adherent cells were collected as a source of effector T cells and pooled with the previous collection above. Adherent monocytes in flasks were then exposed to recombinant human granulocyte macrophage colony stimulating factor (GM-CSF, 25 ng/ml; Peprotech) and recombinant human IL-4 (100 ng/ml; Peprotech) in 10 ml of AIM-V medium containing 10% heat-inactivated FBS. DC obtained by this method [immature DC (iDC)] are characterized by expression of low levels of CD83, CD80, CD86, and HLA class I and class II molecules (data not shown).
(§3) Mature DC (mDC) were obtained by exposing day 5 DC cultures to recombinant soluble CD40 ligand (sCD40L; Peprotech) at […] for 24 h in the presence of 25 ng/ml GM-CSF and are characterized by expression of high levels of CD80, CD86, and HLA class I and class II molecules.mDC were harvested, washed, pulsed with 5 mg/ml peptide in serum-free AIM-V medium and irradiated (5000 rad) prior to use as stimulators.
(§4) The protocol used here is a modification of the method described by Plebanski et al. (Eur. J. Immunol. 25:1783, (1995)). CTL to peptide were generated by 3±4 cycles of stimulation with peptide-loaded APC. For the first round of stimulation (day 0), T cells or non-adherent PBMC from above (2.3×10^6/ml or 4.3×10^6 per well) were added in bulk (CD4^+, CD8^+, NK, etc.) to adherent PBMC-loaded peptides in serum-free medium ([…]), β2-microglobulin ([…]) (Calbiochem-Novabiochem), recombinant human IL-7 (5 ng/ml) (Peprotech) and keyhole limpet hemocyanin (5 mg/ml) (Sigma, St Louis, Mo.). Cultures were re-stimulated with iDC every 7 days, pulsed with varying amounts of peptide (second round 25 mg/ml, third round 10 mg/ml) and irradiated (5000 rad) on day 8. At each re-stimulation, the T cells were transferred to new plates by first aspirating 70% of spent media in wells and then transferring the pooled contents to a new plate. Fresh IL-7 was added at each re-stimulation. The responder:stimulator (T cell:DC) ratio was set at 20 for each stimulation. Recombinant human IL-2 (10 U/ml) was added on day 5 after each re-stimulation.
(§5) Prior to CTL assays, the T cells were harvested and CD8^+ T cells were purified by positive selection using CD8^+ microbeads immunomagnetic cell separation with MACS kit (Miltenyi Biotec, Auburn, Calif.). If a fourth round of stimulation was necessary following CTL analysis, the CTL were pulsed as before, except with 5±10 mg/ml of peptide.
(§6) The peptide specific CTLs were assessed for recognition and/or lysis of peptide-loaded T2 cells as well as various lung normal and tumor target cells. After two to four rounds of restimulation, cultures were tested for cytotoxic activity against the peptide loaded and normal and tumor targets. Peptide-pulsed T2 cells (1 μg/ml peptide for 2 hr at 37° C.), irrelevant HLA-A2 peptides pulsed T2 cells were used as controls. […]

[2] = tested on: T2 cells loaded with the corresponding synthetic peptide and HLA-A2+ lung cancer cells lines [CRL-5865, CRL-5944 and NCI-H522]; test: Interferon-γ ELISpot with peptide-specific CTL from healthy HLA-A2+ donors; conditions: CTL from PBMC of two healthy HLA-A2+ donors; FIG. 1
Protocol: as §1, §2, §3, §4, §5, §6

[3] = tested on: T2 cells loaded with the corresponding synthetic peptide and HLA-A2+ lung cancer cells lines [CRL-5865, CRL-5944 and NCI-H522]; test: Interferon-γ ELISpot with peptide-specific CTL from a HLA-A2+ lung cancer patient; conditions: CTL from PBMC of a HLA-A2+ donor with lung cancer; FIG. 3A
Protocol: as §4, with “Recombinant human IL-2 (10 U/ml) was added on day 5 after each re-stimulation.” left out
(§7) The peptide specific CTLs were assessed for recognition and/or lysis of peptide-loaded T2 cells as well as various lung normal and tumor target cells. […] Recognition of specific antigens by peptide-specific CTL was measured by production of IFN-gamma and granzyme in the ELISPOT assay (Ramakrishna, V., M. M. Ross, M. Petersson, C. C. Gatlin, C. E. Lyons, C. L. Miller, H. E. Myers, M. McDaniel, L. R. Karns, R. Kiessling, G. Parmiani, and D.C. Flyer. (2003) Int Immunol 15:751-763; Morse, M. A., S. K. Nair, P. J. Mosca, A. C. Hobeika, T. M. Clay, Y. Deng, D. Boczkowski, A. Proia, D. Neidzwiecki, P. A. Clavien, H. I. Hurwitz, J. Schlom, E. Gilboa, and H. K. Lyerly. (2003) Cancer Invest 21:341-349). […]
PBMC from a HLA-A2^+ donor with lung cancer were in vitro stimulated with synthetic peptides corresponding to each of the three selected lung cancer epitopes (SEQ ID 82, SEQ ID 34 and SEQ ID 67). […] Interferon-γ producing cells were quantitated using an Immunospot reader. […]

[4] = tested on: T2 cells loaded with the corresponding synthetic peptide and HLA-A2+ lung cancer cells lines [CRL-5865, CRL-5944 and NCI-H522]; test: Granzyme B ELISpot with peptide-specific CTL from a HLA-A2+ lung cancer patient; conditions: CTL from PBMC of a HLA-A2+ lung cancer patient; FIG. 3B
Protocol: The protocol used here is a modification of the method described by Plebanski et al. (Eur. J. Immunol. 25:1783, (1995)). CTL to peptide were generated by 3±4 cycles of stimulation with peptide-loaded APC. For the first round of stimulation (day 0), T cells or non-adherent PBMC from above (2.3×10^6/ml or 4.3×10^6 per well) were added in bulk (CD4^+, CD8^+, NK, etc.) to adherent PBMC-loaded peptides in serum-free medium ([…]), β2-microglobulin ([…]) (Calbiochem-Novabiochem), recombinant human IL-7 (5 ng/ml) (Peprotech) and keyhole limpet hemocyanin (5 mg/ml) (Sigma, St Louis, Mo.). Cultures were re-stimulated with iDC every 7 days, pulsed with varying amounts of peptide (second round 25 mg/ml, third round 10 mg/ml) and irradiated (5000 rad) on day 8. At each re-stimulation, the T cells were transferred to new plates by first aspirating 70% of spent media in wells and then transferring the pooled contents to a new plate. Fresh IL-7 was added at each re-stimulation. The responder:stimulator (T cell:DC) ratio was set at 20 for each stimulation. Recombinant human IL-2 (10 U/ml) was added on day 5 after each re-stimulation. […]
as §7
PBMC from a HLA-A2^+ lung cancer patient were in vitro stimulated with synthetic peptides corresponding to each of the three selected lung cancer epitopes (SEQ ID 82, SEQ ID 34 and SEQ ID 67). […] Granzyme B producing cells were quantitated using an Immunospot reader. […]

| Sequence | cytolytic activity of peptide-specific CTL (Granzyme B producing cells) [1] | recognition of targets by peptide-specific CTL (Interferon-γ producing cells) [2] | recognition of targets by peptide-specific CTL (Interferon-γ producing cells) [3] | cytolytic activity of peptide-specific CTL (Granzyme B producing cells) [4] |
| --- | --- | --- | --- | --- |
| DQFQKVLSL (listed as Homo sapiens) [SEQ ID 08] | are cytolytic | recognize peptide loaded targets as well as lung cancer cells |  |  |
| GMYGKIAVMEL (listed as Homo sapiens) [SEQ ID 19] | are cytolytic | recognize peptide loaded targets as well as lung cancer cells |  |  |
| KIYQWINEL (listed as Homo sapiens) [SEQ ID 29] | are cytolytic | recognize peptide loaded targets as well as lung cancer cells |  |  |
| KLGEFAKVLEL (listed as Homo sapiens) [SEQ ID 33] | are cytolytic | recognize peptide loaded targets as well as lung cancer cells |  |  |
| KLIPFLEKL (listed as Homo sapiens) [SEQ ID 34] | are cytolytic | recognize peptide loaded targets as well as lung cancer cells | recognize peptide loaded targets as well as lung cancer cells | are cytolytic |
| KLSLVAAML (listed as Homo sapiens) [SEQ ID 36] | are cytolytic | recognize peptide loaded targets as well as lung cancer cells |  |  |
| RLLEVPVML (listed as Homo sapiens) [SEQ ID 67] | are cytolytic | recognize peptide loaded targets as well as lung cancer cells | recognize peptide loaded targets as well as lung cancer cells | are cytolytic |
| VLVPVLVMV (listed as Homo sapiens) [SEQ ID 82] | are cytolytic | recognize peptide loaded targets as well as lung cancer cells | recognize peptide loaded targets as well as lung cancer cells | are cytolytic |

Source: US9907842B2, “Cytotoxic T lymphocyte inducing immunogens for prevention treatment and diagnosis of cancer” (Immunotope, Inc., priority 2009, dated 2018)
